Measurements reported in the NIST ThermoML archive (doi:10.1016/j.jct.2015.09.005).
Numbers after ± are expanded uncertainties.

Details: Liquid, Gas chromatography

Compound | vapor or sublimation pressure (298.15 K) | vapor or sublimation pressure (308.15 K) | vapor or sublimation pressure (318.15 K) | vapor or sublimation pressure (328.15 K) | vapor or sublimation pressure (338.15 K) | vapor or sublimation pressure (348.15 K) | vapor or sublimation pressure (350 K)
CC1=COC(=O)[C@H]2[C@@H]1CC[C@@H]2C | 0.00092 ± 9e-05 kPa | 0.0022 ± 0.0002 kPa | 0.005 ± 0.0005 kPa | 0.011 ± 0.001 kPa | 0.022 ± 0.002 kPa | 0.045 ± 0.005 kPa | 0.05 ± 0.005 kPa
CC1=COC(=O)[C@@H]2[C@@H]1CC[C@@H]2C | 0.0012 ± 0.0001 kPa | 0.0029 ± 0.0003 kPa | 0.0066 ± 0.0007 kPa | 0.014 ± 0.002 kPa | 0.029 ± 0.003 kPa | 0.056 ± 0.006 kPa | 0.064 ± 0.006 kPa
